By AUC(0-t) is commonly meant exposure summed from dosing to a finite time, without extrapolation to infinity. By Cmax is commonly meant the peak of the concentration-time curve. The Tmax is the time from dosing to the highest level. As usually defined, the AUC(0-inf) is the area under the concentration-time curve extrapolated to infinity. As usually defined, the half-life is how long it takes for the measured level to halve. In general, IC50 refers to the concentration needed to halve the response being measured.

Data set [1] in a line: Hygroscopicity test of various salts (Chinese Pharmacopoeia 2010, Part II, Appendix XIX J). Type of data set: physicochemical. To be noted: HR = 80% ± 2. The procedure: The various acid addition salts of the compound of Formula I were tested according to “Guiding Principles for Drug Hygroscopicity Test” described in the Chinese Pharmacopoeia, 2010 edition, Part II, Appendix XIX J. The increased weights by hygroscopy of the samples were calculated respectively, and the results are shown in Table 11.

Data set [2] in a line: Pharmacokinetic test in SD rats, intragastric 50 mg/kg of salts and crystalline forms. Type of data set: in vivo. The following applies: 50 mg/kg (in free base). The procedure: Number and gender: 20, males;
Twenty male SPF SD rats were randomly divided into 4 groups, fasted (free access to water) overnight, and then intragastrically administered with 50 mg/kg of the crystalline Form I of the mesylate of the compound of Formula I (Example 11), 50 mg/kg of the crystalline Form II of the mesylate of the compound of Formula I (Example 12), 50 mg/kg of the crystalline Form VIII of the mesylate of the compound of Formula I (Example 19) and 50 mg/kg of the hydrochloride salt of the compound of Formula I (Example 7), respectively (in basic group). Blood samples (0.2˜0.3 mL) were taken from the orbital of the rats at the blood collection time points 0.25 h, 0.5 h, 1 h, 2 h, 3 h, 4 h, 6 h, 8 h, 10 h, 24 h, 30 h and 48 h after administration. The whole blood collected was then placed in EDTA-K2 centrifuge tubes, stored at 4° C., and centrifuged for 10 min at a speed of 4000 rpm at 4° C. within 0.5 h to separate plasma. After the collection of all the plasma, it was stored at −20° C. within 1 h. Pharmacokinetic parameters (PK parameters) were calculated using DAS 3.2.1 software according to the non-compartment statistical moment theory, and the results are shown in Table 15.

The nature of data set [3]: Stability test of various salts, high temperature and high humidity (Chinese Pharmacopoeia 2010, Part II, Appendix XIX C). Type of data set: physicochemical. To be noted: for Purity before test: before high temperature and high humidity test. The procedure:
The stability of the various acid addition salts of the compound of Formula I were tested according to the method described in the Chinese Pharmacopoeia, 2010 edition, Part II, Appendix XIX C.

For data set [4], the target named is T1, IDH2 (R172K, 40-end) (Homo sapiens, UniProt P48735, R172K).
T1 sequence (P48735 40-452 R172K): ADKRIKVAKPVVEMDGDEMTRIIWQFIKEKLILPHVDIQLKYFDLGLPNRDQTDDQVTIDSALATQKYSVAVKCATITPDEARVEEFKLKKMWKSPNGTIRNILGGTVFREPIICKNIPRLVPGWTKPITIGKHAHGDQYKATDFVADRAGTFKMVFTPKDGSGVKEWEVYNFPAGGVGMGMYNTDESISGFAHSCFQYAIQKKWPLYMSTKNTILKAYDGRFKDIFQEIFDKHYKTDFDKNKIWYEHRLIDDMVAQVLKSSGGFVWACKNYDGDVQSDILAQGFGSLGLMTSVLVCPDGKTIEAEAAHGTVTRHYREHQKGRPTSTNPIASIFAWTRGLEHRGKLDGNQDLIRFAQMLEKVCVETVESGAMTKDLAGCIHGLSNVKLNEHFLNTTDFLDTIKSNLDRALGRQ
Nature of the data set: Inhibitory activity test against IDH2 (NADPH decrease, diaphorase/resazurin fluorescence). Type of data set: biochemical. The procedure: The inhibitory activity of the compound of the present application against IDH2 (R172K, 40-end) was determined by using the following method.
The inhibitory activity of a compound against IDH2 (R172K, 40-end) was determined by the decrease of a helper factor NADPH (reduced coenzyme II). The test compound was pre-incubated with an enzyme and NADPH, and then a reaction was initiated by the addition of a-KG, and performed for 120 minutes under a linear condition. Then, the reaction was terminated by the addition of diaphorase (lipoamide dehydrogenase) and the corresponding substrate resazurin. Diaphorase terminated the IDH2m reaction by decreasing the available helper factor NADPH, which oxidized NADPH to NADP (oxidized coenzyme II), and reduced resazurin to highly fluorescent resorufin. The amount of remaining helper factor NADPH after a specific reaction time was quantified via an easily detectable fluorophore.
Specifically, 2.5 μl of a 3-fold gradient diluted test compound was added to a 384-well plate, and then 5 μl of a reaction buffer (20 mM Tris-HCl, PH7.5; 150 mM NaCl; 10 mM MgCl2; 10 mM MnCl2; 0.4 mg/ml BSA and 2 mM DTT) containing 80 nM IDH2 (R172K, 40-end) and 40 μM NADPH was added. Then, the resulting test mixture was incubated for 120 minutes at a temperature of 23° C., and then 2.5 μl of the reaction buffer containing 4 mM a-KG was added to initiate the reaction. After incubating for 120 minutes at room temperature, 5 μl of a termination mixture (0.4 U/ml diaphorase and 40 μM resazurin) prepared with the reaction buffer was added to convert resazurin to resorufin to determine the remaining NADPH.

Data set [5] concerns relapsed and refractory AML. The following applies: cited from earlier work.
A short description of data set [6]: Pharmacokinetic test in rats, single intragastric dose of 5 mg/kg. It is filed as in vivo. The following applies: male rats. The procedure: Healthy male adult rats (7-9 weeks old) were used, each group of animals (3 male rats) was intragastrically administered once at a single dose of 5 mg/kg. The animals in the intragastric administration group were fasted overnight before this study. The fasting time period was from 10 hours before administration to 4 hours after administration.
Blood samples were taken at 0.25, 0.5, 1, 2, 4, 6, 8 and 24 h after administration. The animals were anesthetized with isoflurane using a small animal anesthesia machine, and then 0.3 mL whole blood samples were taken from the fundus venous plexus. The blood samples were placed in heparin anticoagulant tubes, and centrifuged for 5 min at 4° C. and 4000 rpm. The resulting plasma samples were transferred to centrifuge tubes, and stored at −80° C. until analysis.
Verified liquid chromatography-tandem mass spectrometry (LC-MS/MS) method was used to analyze the plasma samples. Plasma concentration-time data of individual animals were analyzed using WinNonlin (Professional Edition, version 6.3; Pharsight Company) software. The non-compartmental model was introduced for concentration analysis. The pharmacokinetic parameters (PK parameters) of the compounds were calculated.

Setting [7] is: listed as The crystalline Form VIII of the mesylate of the compound of Formula I, 50 mg/kg.
Setting [8] is: male, SD, rat, plasma, po, 50 mg/kg.
Where [9] appears, read: listed as The crystalline Form II of the mesylate of the compound of Formula I, 50 mg/kg.

Read-outs that look alike come from different tables or passages of the source.

For the molecule `CC(C)(C)ONc1nc(Nc2ccnc(C(F)(F)F)c2)nc(-c2cccc(C(F)(F)F)n2)n1.O=C(O)/C=C\C(=O)O` [Maleate (Example 10)], in data set [1], the “Increased Weights by Hygroscopy” value was 2.2%.

In the case of `CC(C)(C)ONc1nc(Nc2ccnc(C(F)(F)F)c2)nc(-c2cccc(C(F)(F)F)n2)n1.CS(=O)(=O)O` [4-(tert-butoxyamino)-6-(6-(trifluoromethyl)pyridin-2-yl)-N-(2-(trifluoromethyl)pyridin-4-yl)-1,3,5-triazin-2-amine methanesulfonic acid salt], in data set [2] (setting [7]), the “AUC(0-t)” value is 42249 ng·h/mL, the “AUC(0-∞)” value turned out to be 43976 ng·h/mL, the Cmax is 2102 ng/mL and the “MRT(0-t)” value came out at 15.0 h. In addition, in data set [2] (setting [7]), the T1/2 is recorded as 9.53 h and the Tmax came out at 8.80 h. In data set [2] (setting [8]), the AUC(0-inf) amounted to 47400 ng·h/mL and the half-life was 10.4 h. The exposure AUC(0-t) in data set [2] (male, SD, rat, plasma, po, 50 mg/kg, read-out: AUC(0-t)) was 43900 ng·h/mL. The Cmax in data set [2] (male, SD, rat, plasma, po, 50 mg/kg, read-out: Cmax) amounted to 1730 ng/mL. For the same molecule, the MRT last in data set [2] (male, SD, rat, plasma, po, 50 mg/kg, read-out: MRT(0-t)) came out at 16.5 h. The Tmax in data set [2] (male, SD, rat, plasma, po, 50 mg/kg, read-out: Tmax) is 6.6 h. Further, the “Increased Weights by Hygroscopy” value in data set [1] amounted to 1.0%. Further, in data set [3], the “Purity after high temperature and high humidity test” value was found to be 99.22%; the Purity before test was found to be 98.82%.

With `CC(C)(C)ONc1nc(Nc2ccnc(C(F)(F)F)c2)nc(-c2cccc(C(F)(F)F)n2)n1.O=S(=O)(O)O` [The sulfate (Example 8)], the “Increased Weights by Hygroscopy” value in data set [1] came out at 1.3%. Also, in data set [3], the “Purity after high temperature and high humidity test” value is 93.58%; the Purity before test amounted to 99.30%.

With `CC(C)(C)ONc1nc(Nc2ccnc(C(F)(F)F)c2)nc(-c2cccc(C(F)(F)F)n2)n1.Cc1ccc(S(=O)(=O)O)cc1` [The p-toluenesulfonate (Example 9)], the “Increased Weights by Hygroscopy” value in data set [1] is listed as 0.7%. In addition, in data set [3], the “Purity after high temperature and high humidity test” value is recorded as 97.63%; the Purity before test worked out at 98.79%.

Take `CC(C)(O)CNc1nc(Nc2ccnc(C(F)(F)F)c2)nc(-c2cccc(C(F)(F)F)n2)n1` [AG-221, Enasidenib]: the IC50 in data set [4] is 68 nM. Besides, in data set [5], the “complete remission rate (CR)” value is “up to 27%” and the “overall response rate (ORR)” value is recorded as “up to 41%”. Besides, in data set [5] (effective patients), the “effective patients who insist on the treatment for at least 6 months” value is 76% and the “effective patients with a stable condition” value is listed as 44%.

For `CC(C)(C)ONc1nc(Nc2ccnc(C(F)(F)F)c2)nc(-c2cccc(C(F)(F)F)n2)n1` [The compound of Formula I, 4-(tert-butoxyamino)-6-(6-(trifluoromethyl)pyridin-2-yl)-N-(2-(trifluoromethyl)pyridin-4-yl)-1,3,5-triazin-2-amine], in data set [4] (IDH2 (R172K, 40-end)), the “inhibitory activity compared with AG-221 (in words)” value is “better inhibitory activity than AG-221”. Also, the IC50 in data set [4] (IDH2 (R172K, 40-end), 80 nM enzyme, 40 μM NADPH, read-out: IC50) amounted to 32 nM. In addition, in data set [6], the “half-life (in words)” value was “long half-life” and the “plasma concentration compared with AG-221 at the same dosage (in words)” value is given as “higher than AG-221”.

As to `CC(C)(C)ONc1nc(Nc2ccnc(C(F)(F)F)c2)nc(-c2cccc(C(F)(F)F)n2)n1.CS(=O)(=O)O` [The mesylate (Example 12), 4-(tert-butoxyamino)-6-(6-(trifluoromethyl)pyridin-2-yl)-N-(2-(trifluoromethyl)pyridin-4-yl)-1,3,5-triazin-2-amine methanesulfonic acid salt], in data set [2] (setting [9]), the “AUC(0-t)” value was determined as 42249 ng·h/mL, the “AUC(0-∞)” value came out at 43976 ng·h/mL, the Cmax amounted to 2102 ng/mL and the “MRT(0-t)” value was determined as 15.0 h. Further, in data set [2] (setting [9]), the T1/2 worked out at 9.53 h and the Tmax is given as 8.80 h.

On to `CC(C)(C)ONc1nc(Nc2ccnc(C(F)(F)F)c2)nc(-c2cccc(C(F)(F)F)n2)n1.Cl` [The hydrochloride salt (Example 7)], for which, in data set [2], the “AUC(0-t)” value worked out at 48570.9 ng·h/mL, the “AUC(0-∞)” value was 55252.1 ng·h/mL, the Cmax stood at 1642 ng/mL and the “MRT(0-t)” value came out at 18.02 h. In addition, in data set [2], the T1/2 is 13.67 h and the Tmax stood at 10.6 h. Further, the “Increased Weights by Hygroscopy” value in data set [1] was 0.9%. In addition, in data set [3], the “Purity after high temperature and high humidity test” value worked out at 99.62%; the Purity before test is given as 98.85%.
